Reference: the supplement of paper PMC10307832

Tests used:
Assay in all cases: relative viability (nuclei count vs DMSO), 5 days (fraction); higher = more cells survive
[1] = compound: Cc1ccc(C(=O)Nc2cccc(C(F)(F)F)c2)cc1Nc1cncc(C(N)=O)c1 [ALW-II-49-7] + CCNC(=O)c1noc(-c2cc(C(C)C)c(O)cc2O)c1-c1ccc(CN2CCOCC2)cc1 [Luminespib] (partner 0.01 µM)
Outline: (§1)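 Values are medians from duplicate plates. Each reflects relative viability, defined as the nuclei count of treated wells over that of vehicle wells. Lung cancer cell lines in 1536-well plates were pin-tool dosed one day after seeding with one drug alone or with a fixed anchor-drug dose plus five library-drug doses (not always all listed) in √10 steps, then fixed, stained and imaged at 4× after 5 days.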

[2] = compound: Cc1ccc(C(=O)Nc2cccc(C(F)(F)F)c2)cc1Nc1cncc(C(N)=O)c1 [ALW-II-49-7] + N=C(N)NC(=N)NCCc1ccccc1 [Phenformin] (partner 250 µM)
Outline: as §1

[3] = compound: Cc1nc(Nc2ncc(C(=O)Nc3c(C)cccc3Cl)s2)cc(N2CCN(CCO)CC2)n1 [Dasatinib] + COc1cc2c(Oc3ccc(NC(=O)C4(C(=O)Nc5ccc(F)cc5)CC4)cc3F)ccnc2cc1OCCCN1CCOCC1 [Foretinib] (partner 0.25 µM)
Outline: as §1

[4] = compound: Cc1nc(Nc2ncc(C(=O)Nc3c(C)cccc3Cl)s2)cc(N2CCN(CCO)CC2)n1 [Dasatinib] + CS(=O)(=O)N1CCN(Cc2cc3nc(-c4cccc5[nH]ncc45)nc(N4CCOCC4)c3s2)CC1 [Pictilisib] (partner 1 µM)
Outline: as §1

| Cell Line | relative viability ([1]; first compound 0.08 µM) | relative viability ([1]; first compound 0.253 µM) | relative viability ([1]; first compound 0.8 µM) | relative viability ([1]; first compound 8 µM) | relative viability ([2]; first compound 0.08 µM) | relative viability ([2]; first compound 0.253 µM) | relative viability ([2]; first compound 0.8 µM) | relative viability ([2]; first compound 2.53 µM) | relative viability ([2]; first compound 8 µM) | relative viability ([3]; first compound 0.005 µM) | relative viability ([3]; first compound 0.01581 µM) | relative viability ([3]; first compound 0.05 µM) | relative viability ([3]; first compound 0.1581 µM) | relative viability ([3]; first compound 0.5 µM) | relative viability ([4]; first compound 0.005 µM) | relative viability ([4]; first compound 0.01581 µM) | relative viability ([4]; first compound 0.05 µM) | relative viability ([4]; first compound 0.1581 µM) | relative viability ([4]; first compound 0.5 µM) | relative viability ([1]; first compound 2.53 µM) |
| --- | --- | --- | --- | --- | --- | --- | --- | --- | --- | --- | --- | --- | --- | --- | --- | --- | --- | --- | --- | --- |
| NCI-H23 | 0.188 | 0.22 | 0.228 | 0.191 | 0.855 | 0.759 | 0.705 | 0.857 | 0.898 | 0.864 | 0.649 | 0.676 | 0.457 | 0.484 | 0.335 | 0.26 | 0.376 | 0.28 | 0.181 |  |
| NCI-H322M | 0.897 | 0.762 | 0.965 | 0.833 | 0.684 | 0.697 | 0.711 | 0.777 | 0.612 | 0.909 | 0.75 | 0.485 | 0.285 | 0.233 | 0.433 | 0.408 | 0.37 | 0.245 | 0.171 | 0.868 |
| NCI-H358 | 0.272 | 0.318 | 0.244 | 0.245 | 0.324 | 0.297 | 0.356 | 0.407 | 0.312 | 0.649 | 0.532 | 0.433 | 0.198 | 0.162 | 0.383 | 0.232 | 0.287 | 0.206 | 0.208 | 0.322 |
| NCI-H441 | 0.332 | 0.32 | 0.313 | 0.243 | 0.979 | 0.682 | 0.817 | 0.928 | 0.67 | 1.06 | 0.988 | 1.02 | 0.701 | 0.382 | 0.555 | 0.437 | 0.381 | 0.211 | 0.145 | 0.35 |
| NCI-H460 | 0.0293 | 0.0319 | 0.0397 | 0.0275 | 0.425 | 0.414 | 0.561 | 0.559 | 0.372 | 1.04 | 0.904 | 0.808 | 0.716 | 0.746 | 0.195 | 0.102 | 0.208 | 0.189 | 0.104 | 0.0303 |
| NCI-H520 | 0.219 | 0.216 | 0.232 | 0.237 | 0.57 | 0.604 | 0.624 | 0.681 | 0.562 | 0.631 | 0.427 | 0.36 | 0.175 | 0.175 | 0.278 | 0.265 | 0.213 | 0.148 | 0.157 | 0.206 |
| NCI-H596 | 0.929 | 0.943 | 1.18 | 1.12 | 0.804 | 0.706 | 0.596 | 0.622 | 0.788 | 0.688 | 0.66 | 0.521 | 0.376 | 0.291 | 0.349 | 0.348 | 0.312 | 0.475 | 0.118 | 1.1 |
| NCI-H647 | 0.134 | 0.206 | 0.236 | 0.154 | 0.312 | 0.325 | 0.551 | 0.539 | 0.326 | 1.11 | 1.17 | 0.649 | 0.276 | 0.252 | 0.258 | 0.308 | 0.182 | 0.11 | 0.122 | 0.167 |
